Test results from patent US6114310A, “Efflux pump inhibitors” (priority 1998, dated 2000).

Test system: Pseudomonas aeruginosa PAM1001
Experiment: microbe, parasite or virus in culture
Assay type: cell-based
In short: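 Checkerboard broth microdilution (NCCLS) with the efflux pump inhibitor and levofloxacin, each diluted along one axis of the plate, in Mueller Hinton Broth. Inoculum 5×10^5 CFU/ml from early-log culture; incubation 20 h at 35° C. Growth read at 650 nm and visually.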

D-Ornithyl-β-[N-(ethylthioethyl)]alanine 2-naphthylamide [Compound 42 (Table 3)]
Levofloxacin MIC Against P. aeruginosa PAM1001 in Presence of Efflux Pump Inhibitor (EPI), Minimum Inhibitory Concentration (Table 1, EPI Conc. 0 μg/ml): 4 µg/mL
Levofloxacin MIC Against P. aeruginosa PAM1001 in Presence of Efflux Pump Inhibitor (EPI), Minimum Inhibitory Concentration (Table 1, EPI Conc. 0.625 μg/ml): 4 µg/mL
Levofloxacin MIC Against P. aeruginosa PAM1001 in Presence of Efflux Pump Inhibitor (EPI), Minimum Inhibitory Concentration (Table 1, EPI Conc. 5 μg/ml): 4 µg/mL
Levofloxacin MIC Against P. aeruginosa PAM1001 in Presence of Efflux Pump Inhibitor (EPI), Minimum Inhibitory Concentration (Table 1, EPI Conc. 10 μg/ml): 1 µg/mL
Levofloxacin MIC Against P. aeruginosa PAM1001 in Presence of Efflux Pump Inhibitor (EPI), Minimum Inhibitory Concentration (Table 1, EPI Conc. 40 μg/ml): 0.008 µg/mL
Levofloxacin MIC Against P. aeruginosa PAM1001 in Presence of Efflux Pump Inhibitor (EPI), Minimum Inhibitory Concentration (Table 1, EPI Conc. […]): 4 µg/mL
Levofloxacin MIC Against P. aeruginosa PAM1001 in Presence of Efflux Pump Inhibitor (EPI), Minimum Inhibitory Concentration (Table 1, EPI Conc. μg/ml (number not given; column between 10 and 40 μg/ml)): 0.06 µg/mL
Levofloxacin MIC Against P. aeruginosa PAM1001 in Presence of Efflux Pump Inhibitor (EPI), Minimum Inhibitory Concentration (Table 2, EPI Conc. 0 μg/ml): 4 µg/mL
Levofloxacin MIC Against P. aeruginosa PAM1001 in Presence of Efflux Pump Inhibitor (EPI), Minimum Inhibitory Concentration (Table 2, EPI Conc. 0.625 μg/ml): 4 µg/mL
Levofloxacin MIC Against P. aeruginosa PAM1001 in Presence of Efflux Pump Inhibitor (EPI), Minimum Inhibitory Concentration (Table 2, EPI Conc. 5 μg/ml): 0.25 µg/mL
Levofloxacin MIC Against P. aeruginosa PAM1001 in Presence of Efflux Pump Inhibitor (EPI), Minimum Inhibitory Concentration (Table 2, EPI Conc. 10 μg/ml): 0.03 µg/mL
Levofloxacin MIC Against P. aeruginosa PAM1001 in Presence of Efflux Pump Inhibitor (EPI), Minimum Inhibitory Concentration (Table 2, EPI Conc. 40 μg/ml): 0.06 µg/mL
Levofloxacin MIC Against P. aeruginosa PAM1001 in Presence of Efflux Pump Inhibitor (EPI), Minimum Inhibitory Concentration (Table 2, EPI Conc. μg/ml (number not given; column between 10 and 40 μg/ml)): 0.03 µg/mL
Levofloxacin MIC Against P. aeruginosa PAM1001 in Presence of Efflux Pump Inhibitor (EPI), Minimum Inhibitory Concentration (Table 3, EPI Conc. 0 μg/ml): 4 µg/mL
Levofloxacin MIC Against P. aeruginosa PAM1001 in Presence of Efflux Pump Inhibitor (EPI), Minimum Inhibitory Concentration (Table 3, EPI Conc. 0.625 μg/ml): 4 µg/mL
Levofloxacin MIC Against P. aeruginosa PAM1001 in Presence of Efflux Pump Inhibitor (EPI), Minimum Inhibitory Concentration (Table 3, EPI Conc. 5 μg/ml): 2 µg/mL
Levofloxacin MIC Against P. aeruginosa PAM1001 in Presence of Efflux Pump Inhibitor (EPI), Minimum Inhibitory Concentration (Table 3, EPI Conc. 10 μg/ml): 0.25 µg/mL
Levofloxacin MIC Against P. aeruginosa PAM1001 in Presence of Efflux Pump Inhibitor (EPI), Minimum Inhibitory Concentration (Table 3, EPI Conc. 40 μg/ml): 0.125 µg/mL
Levofloxacin MIC Against P. aeruginosa PAM1001 in Presence of Efflux Pump Inhibitor (EPI), Minimum Inhibitory Concentration (Table 3, EPI Conc. […]): 4 µg/mL
Levofloxacin MIC Against P. aeruginosa PAM1001 in Presence of Efflux Pump Inhibitor (EPI), Minimum Inhibitory Concentration (Table 3, EPI Conc. μg/ml (number not given; column between 10 and 40 μg/ml)): 0.125 µg/mL
Levofloxacin MIC Against P. aeruginosa PAM1001 in Presence of Efflux Pump Inhibitor (EPI), Minimum Inhibitory Concentration (Table 4, EPI Conc. 0 μg/ml): 4 µg/mL
Levofloxacin MIC Against P. aeruginosa PAM1001 in Presence of Efflux Pump Inhibitor (EPI), Minimum Inhibitory Concentration (Table 4, EPI Conc. 0.625 μg/ml): 4 µg/mL
Levofloxacin MIC Against P. aeruginosa PAM1001 in Presence of Efflux Pump Inhibitor (EPI), Minimum Inhibitory Concentration (Table 4, EPI Conc. 5 μg/ml): 2 µg/mL
Levofloxacin MIC Against P. aeruginosa PAM1001 in Presence of Efflux Pump Inhibitor (EPI), Minimum Inhibitory Concentration (Table 4, EPI Conc. 10 μg/ml): 1 µg/mL
Levofloxacin MIC Against P. aeruginosa PAM1001 in Presence of Efflux Pump Inhibitor (EPI), Minimum Inhibitory Concentration (Table 4, EPI Conc. 40 μg/ml): 0.03 µg/mL
Levofloxacin MIC Against P. aeruginosa PAM1001 in Presence of Efflux Pump Inhibitor (EPI), Minimum Inhibitory Concentration (Table 4, EPI Conc. […]): 4 µg/mL
Levofloxacin MIC Against P. aeruginosa PAM1001 in Presence of Efflux Pump Inhibitor (EPI), Minimum Inhibitory Concentration (Table 4, EPI Conc. μg/ml (number not given; column between 10 and 40 μg/ml)): 0.125 µg/mL
